Measured values reported in ChEMBL document CHEMBL4765458, “Synthesis and biological evaluation of organoselenium (NSAIDs-SeCN and SeCF) derivatives as potential anticancer agents” (Eur J Med Chem, 2020).
pIC50: −log10 of the molar value. Calls of active or inactive are those of the source. The rule behind the calls is not given here.

Legend:
SW480 [1] = assay: Cytotoxicity against human SW480 cells assessed as reduction in cell viability measured after 72 hrs by MTT assay; format: functional, cell-based; details: SW480, 72 h
A549 [2] = assay: cells; details: Homo sapiens, A549, 48 h
A549 [3] = assay: Cytotoxicity against human A549 cells assessed as reduction in cell viability measured after 72 hrs by MTT assay; format: functional, cell-based; details: A549, 72 h
HeLa [4] = assay: Cytotoxicity against human HeLa cells assessed as reduction in cell viability measured after 48 hrs by MTT assay; format: functional, cell-based
MCF7 [5] = assay: Cytotoxicity against human MCF7 cells assessed as reduction in cell viability measured after 48 hrs by MTT assay; format: functional, cell-based; details: MCF7, 48 h
A549 [6] = assay: Cytotoxicity against human A549 cells assessed as reduction in cell viability measured after 24 hrs by MTT assay; format: functional, cell-based; details: A549, 24 h
HeLa [7] = assay: Cytotoxicity against human HeLa cells assessed as reduction in cell viability measured after 24 hrs by MTT assay; format: functional, cell-based
SW480 [8] = assay: Cytotoxicity against human SW480 cells assessed as reduction in cell viability measured after 24 hrs by MTT assay; format: functional, cell-based; details: SW480, 24 h
MCF7 [9] = assay: Cytotoxicity against human MCF7 cells assessed as reduction in cell viability measured after 72 hrs by MTT assay; format: functional, cell-based; details: MCF7, 72 h
MCF7 [10] = assay: Cytotoxicity against human MCF7 cells assessed as reduction in cell viability measured after 24 hrs by MTT assay; format: functional, cell-based; details: MCF7, 24 h
SW480 [11] = assay: Cytotoxicity against human SW480 cells assessed as reduction in cell viability measured after 48 hrs by MTT assay; format: functional, cell-based; details: SW480, 48 h
HeLa [12] = assay: Cytotoxicity against human HeLa cells assessed as reduction in cell viability measured after 72 hrs by MTT assay; format: functional, cell-based
[13] = Antioxidant activity assessed as DPPH radical scavenging activity incubated for 30 mins under dark condition relative to control; format: functional; set-up: concentration or dose not given beside the values
MCF7 [14] = assay: Induction of apoptosis in human MCF7 cells assessed as up regulation of IL-2 expression at IC50 measured after 48 hrs by ELISA relative to control; format: functional
MCF7 [15] = assay: Induction of apoptosis in human MCF7 cells assessed as down regulation of Bcl-2 expression at IC50 measured after 48 hrs by ELISA relative to control; format: functional
MCF7 [16] = assay: Induction of apoptosis in human MCF7 cells assessed as up regulation of caspase-3 expression at IC50 measured after 48 hrs by ELISA relative to control; format: functional
[17] = Antioxidant activity assessed as GPx-like activity by measuring oxidation of NADPH to NADP+ by NADPH-reductase coupled assay; format: functional

SMILES	pIC50 (A549 [2])	pIC50 (SW480 [1])	pIC50 (A549 [3])	pIC50 (HeLa [4])	pIC50 (MCF7 [5])	pIC50 (A549 [6])	pIC50 (HeLa [7])	pIC50 (SW480 [8])	pIC50 (MCF7 [9])	pIC50 (MCF7 [10])	pIC50 (SW480 [11])	pIC50 (HeLa [12])	inhibition [13]	Activity (MCF7 [14])	Activity (MCF7 [15])	Activity (MCF7 [16])	Activity [17]
COc1ccc2cc([C@H](C)C(=O)NCCC[Se]C(F)(F)F)ccc2c1	4.47	4.60	< 4.30	4.65	4.66	4.55	4.78	5.00	4.45	4.71	4.80	4.51	37.2%	–	–	–	–
CC(=O)Oc1ccccc1C(=O)NCCC[Se]C#N	4.65	5.09	4.65	4.55	5.07	4.74	4.50	5.03	4.99	5.17	5.13	4.74	52.1%	Active	Active	Active	Active
CC1=C(CC(=O)O)c2cc(F)ccc2/C1=C\c1ccc([S+](C)[O-])cc1 (stereo not drawn)	< 4.30	< 4.30	< 4.30	< 4.30	< 4.30	< 4.30	< 4.30	< 4.30	< 4.30	< 4.30	< 4.30	< 4.30	–	–	–	–	–
Cc1cccc(Nc2ccccc2C(=O)NCCC[Se]C(F)(F)F)c1C	4.43	4.99	< 4.30	4.55	5.04	4.56	4.61	4.91	5.16	5.07	5.08	< 4.30	38.9%	–	–	–	–
CC(C(=O)O)c1cccc(C(=O)c2ccccc2)c1 (stereo not drawn) [KETOPROFEN]	< 4.30	< 4.30	< 4.30	< 4.30	< 4.30	< 4.30	< 4.30	< 4.30	< 4.30	< 4.30	< 4.30	< 4.30	–	–	–	–	–
CC(C(=O)NCCC[Se]C#N)c1ccc(-c2ccccc2)c(F)c1 (stereo not drawn)	4.49	4.66	< 4.30	4.49	4.49	4.63	4.44	4.63	< 4.30	4.65	4.52	4.80	16.3%	–	–	–	–

The remaining compounds from weak to strong by pIC50 (A549 [2]), led by results:

pIC50 (A549 [2])	SMILES	pIC50 (SW480 [1])	pIC50 (A549 [3])	pIC50 (HeLa [4])	pIC50 (MCF7 [5])	pIC50 (A549 [6])	pIC50 (HeLa [7])	pIC50 (SW480 [8])	pIC50 (MCF7 [9])	pIC50 (MCF7 [10])	pIC50 (SW480 [11])	pIC50 (HeLa [12])	inhibition [13]	Activity (MCF7 [14])	Activity (MCF7 [15])	Activity (MCF7 [16])	Activity [17]
4.55	N#C[Se]CCCNC(=O)c1ccccc1Nc1cccc(C(F)(F)F)c1	4.61	4.44	4.48	4.79	4.58	4.42	4.60	4.88	4.85	4.76	< 4.30	–	–	–	–	–
4.58	COc1ccc2c(c1)c(CC(=O)NCCC[Se]C(F)(F)F)c(C)n2C(=O)c1ccc(Cl)cc1	4.88	4.52	4.67	4.59	4.74	4.52	4.84	4.46	4.76	4.79	4.81	25.8%	–	–	–	–
4.66	CCc1cccc2c3c([nH]c12)C(CC)(CC(=O)NCCC[Se]C#N)OCC3 (stereo not drawn)	4.69	4.44	4.76	4.43	4.55	4.57	4.71	< 4.30	4.45	4.72	4.55	24.5%	–	–	–	–
4.67	O=C(NCCC[Se]C(F)(F)F)c1ccccc1Nc1cccc(C(F)(F)F)c1	4.71	4.58	4.52	5.08	4.74	4.48	4.65	5.03	5.14	4.80	< 4.30	–	–	–	–	–
4.75	CCc1cccc2c3c([nH]c12)C(CC)(CC(=O)NCCC[Se]C(F)(F)F)OCC3 (stereo not drawn)	4.71	4.58	4.84	4.55	4.71	4.64	4.76	4.47	4.58	4.84	4.59	26.8%	–	–	–	–
